Biological target: T1, Nostoc linoleate 10S-dioxygenase (10S-DOX) (Nostoc punctiforme, UniProt B2J5P4)
T1 sequence (B2J5P4 1-542): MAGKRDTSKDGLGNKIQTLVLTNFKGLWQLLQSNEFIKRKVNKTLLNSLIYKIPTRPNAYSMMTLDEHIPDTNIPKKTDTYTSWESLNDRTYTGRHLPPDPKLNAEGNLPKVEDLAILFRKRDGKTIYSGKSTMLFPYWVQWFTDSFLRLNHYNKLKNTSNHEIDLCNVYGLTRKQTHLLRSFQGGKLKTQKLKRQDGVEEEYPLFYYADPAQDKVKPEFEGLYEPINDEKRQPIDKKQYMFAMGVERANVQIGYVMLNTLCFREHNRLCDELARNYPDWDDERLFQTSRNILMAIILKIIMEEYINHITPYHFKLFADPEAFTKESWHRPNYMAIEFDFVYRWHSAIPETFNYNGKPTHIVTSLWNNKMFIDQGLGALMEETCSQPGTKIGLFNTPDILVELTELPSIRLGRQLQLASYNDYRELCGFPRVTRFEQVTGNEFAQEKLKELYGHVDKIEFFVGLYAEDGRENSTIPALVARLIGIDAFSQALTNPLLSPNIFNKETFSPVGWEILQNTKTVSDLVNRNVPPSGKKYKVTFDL
Experiment: oxygen uptake kinetics
Format: biochemical

**Q.** How did the Km turn out when `CCCCC/C=C\C/C=C\CCCCCCCC(=O)O` [LA, linoleic acid] was run?
**A.** 60.3 µM

— publication PMC4561586 (Biochimica et biophysica acta, 2015)
